One experiment has as its system human ABC1. The experiment in a line: Northern blot, ABC1 expression in Caco-2 cells. The format is cell-based. Conditions: Human Caco-2 cells. The method, then: (§1) Human Caco-2 cells were treated with Compounds B and C. Northern blot analysis was performed (essentially as described above) using human ABC1 and ABC8 cDNA probes.
For a further experiment, the system named is human ABC8. The experiment in a line: Northern blot, ABC8 expression in Caco-2 cells. Conditions: Human Caco-2 cells. The format is cell-based. The method, then: as §1
The subject of experiment [1] is EST clone AA237916 (murine SSG). The experiment in a line: GEM analysis, EST clone AA237916. The format is in vivo, C57BL/6 mouse. As to the method:
Total RNA was prepared from untreated (control) and treated (50 mg/kg of LXRα agonist Compound A) C57BL/6 mouse liver, intestine and kidney. Control and treated RNA samples were used to generate separate pools of unique, fluorescently labeled cDNA probes (performed at Incyte Genomics Inc.). Each (two fluorescent probe) tissue sample was simultaneously applied to a single Incyte Mouse GEM™ 1 microarray where they were competitively reacted with the arrayed cDNA molecules (containing 8,734 cDNA elements). The intensity of the fluorescence at each array element is proportional to the expression level of that particular gene in the sample. Each element of the GEM™ microarray was scanned for the first fluorescent color, and then repeated for the second fluorescent label. The ratio of the two fluorescent intensities provided a quantitative measurement of the relative gene expression level in the two samples. […] A portion of that composite is shown in Table 2, which lists genes having the highest relative expression levels in the treated intestine and their corresponding relative expression levels in liver and kidney. […] One EST in particular, corresponding to Accession Number AA237916, and shown in the first row of Table 2, was selected for further analysis, in part based on its similarity to the Drosophila Brown protein, a member of the ABC superfamily. […]

In a further experiment the test system is SSG mRNA. Nature of the experiment: Northern blot of SSG mRNA in tissues of treated mice. In kind it is in vivo, C57BL/6 mouse. Conditions: 0, 1, 5 and 50 mg/kg. As to the method: Total RNA was prepared from untreated (control) and treated (0, 1, 5 and 50 mg/kg of LXRa agonist Compound A) C57BL/6 mouse liver, intestine and kidney. RNA was electrophoresed on 1.2% agarose/formaldehyde gels, transferred to nylon membrane (Ambion, Bright Star), hybridized to ^32P-labeled murine SSG cDNA probe, washed and subjected to autoradiography.

The test system of another experiment is Caco-2 cells. The experiment in a line: [3H]-cholesterol efflux from Caco-2 cells. To be noted: 1 μM, 24 h treatment; efflux media with apolipoprotein AI 10 ug/ml; 8 and 24 hour time points. The format is cell-based, human. As to the method: Caco2 cells (an adenocarcinoma cell line derived from human colon) were plated in 6 well plates at 50-60% confluence and allowed to adhere overnight in DMEM containing 10% FBS, non-essential amino acids, and Pen/Strep. On the second day, cells were labeled for 24 h with [^3H]-cholesterol (0.5 μCi/ml in DMEM and 1% BSA, Pen/Strep). Cells were washed (2×) with PBS and DMEM (1% BSA) with or without the addition of Compound A (1 μM final concentration). After 24 h treatment, cells were washed (2× with PBS) and efflux media was added containing purified apolipoprotein AI (10 ug/ml). Cells and media were harvested at 8 and 24 hour time points. Cells were washed 3× with PBS, and lysed with 300 μl of 0.5 M NaOH. Radioactivity in media and cell lysates were scintillation counted and normalized to cell protein (using BioRad Lowry Kit). Efflux data shown in is presented as CPM (media)/mg cell protein (FIG. 4).

A further experiment relates to apolipoprotein AI mRNA. The experiment in a line: Northern blot of apolipoprotein AI mRNA in tissues of treated mice. In kind it is in vivo, C57BL/6 mouse. Conditions: liver, intestine and kidney; 0, 1, 5 and 50 mg/kg. As to the method:
(§2) Total RNA was prepared from untreated (control) and treated (0, 1, 5 and 50 mg/kg of LXRa agonist Compound A) C57BL/6 mouse liver, intestine and kidney. RNA was electrophoresed on 1.2% agarose/formaldehyde gels, transferred to nylon membrane (Ambion, Bright Star), hybridized to ^32P-labeled murine ABC-1, apolipoprotein AI, and GAPDH cDNA probes, washed and subjected to autoradiography.

The subject of another experiment is ABC1 mRNA. The experiment in a line: Northern blot of ABC1 mRNA in tissues of treated mice. The format is in vivo, C57BL/6 mouse. Conditions: 0, 1, 5 and 50 mg/kg. As to the method:
as §2

The next experiment concerns GAPDH mRNA. The experiment in a line: Northern blot of GAPDH mRNA in tissues of treated mice. In kind it is in vivo, C57BL/6 mouse. To be noted: liver, intestine and kidney; 0, 1, 5 and 50 mg/kg. As to the method: as §2

Molecules are shown by their SMILES.

Take `CC(c1ccco1)N(C(=O)C12CC3CC(CC(C3)C1)C2)c1ccccn1` (centres unmarked) [C]: the “human ABC1 expression (Northern blot)” value in the experiment with human ABC1 is “induced”. The “human ABC8 expression (Northern blot)” value in the experiment on human ABC8 is recorded as “induced”.

For `CN(c1ccc(C(O)(C(F)(F)F)C(F)(F)F)cc1)S(=O)(=O)c1ccccc1` [B], the “human ABC1 expression (Northern blot)” value in the experiment with human ABC1 is on record as “induced”. Moreover, the “human ABC8 expression (Northern blot)” value in the experiment with human ABC8 is on record as “induced”.

For the molecule `O=S(=O)(c1ccccc1)N(CC(F)(F)F)c1ccc(C(O)(C(F)(F)F)C(F)(F)F)cc1` [Compound A], the “induction of EST clone AA237916 (murine SSG)” value in experiment [1] (intestine of treated mice) is on record as 2.5 fold; in experiment [1] (liver of treated mice), 2.4 fold. In addition, the “SSG expression (mRNA, Northern blot)” value in the experiment on SSG mRNA (intestine) and in the experiment on SSG mRNA (liver) was “induced” in each case. In addition, the cholesterol efflux result with Caco-2 cells is “Stimulates Cholesterol Efflux”. In the experiment with apolipoprotein AI mRNA, the “apolipoprotein AI mRNA levels” value was “no measurable difference”. Further, the “ABC1 mRNA” value with ABC1 mRNA (intestine), in the experiment on ABC1 mRNA (kidney) and in the experiment with ABC1 mRNA (liver) was “Dose dependent increases” in each case. The “GAPDH mRNA levels” value in the experiment with GAPDH mRNA is reported as “no measurable difference”.

The values are drawn from patent US7033810B2, “Sitosterolemia susceptibility gene (SSG): compositions and methods of use” (Amgen Inc., priority 2000, dated 2006).
